Source: patent US8563052B2, “Method for preparing gintonin, which is a novel glycolipoproetin from panax ginseng, and gintonin, which is a novel glycolipoprotein, prepared by the method” (Konkuk University Industrial Cooperation Corp., priority 2009, dated 2013)

Tests used:
[1] = tested on: gintonin-induced CaCC currents; assay: Effects of PLC inhibitor, IP3 receptor antagonist or Ca2+ chelator on crude gintonin-mediated CaCC activation in Xenopus oocytes; assay type: cell-based, Xenopus laevis; conditions: for crude gintonin-induced CaCC currents, % of the control: in presence of the PLC inhibitor or inactive analog
Experimental: Two-electrode voltage-clamp recordings were obtained from individual oocytes placed in a small Plexiglas net chamber (0.5 ml). Electrophysiological experiments were performed at room temperature using microelectrodes filled with 3 M KCl (resistance of 0.2-0.7 MΩ) and an Oocyte Clamp amplifier (OC-725C; Warner Instrument, Hamden, Conn.), followed by recording CaCC at −80 mV holding potential.
For this, the effect of the IP3 receptor antagonist, membrane permeable 2-aminoethxydiphenyl borate (2-APB), on gintonin-induced CaCC activation was examined.

[2] = tested on: gintonin-mediated elevation of [Ca^2+]i in mouse EAT cells; assay: Effects of active or inactive PLC inhibitors on gintonin-mediated [Ca2+]i elevation in mouse EAT cells; assay type: cell-based; conditions: for effect on the action of gintonin on [Ca^2+]i: mouse EAT cells, irrespective of the presence of extracellular Ca^2+; for effect on gintonin (100 ng/mL)-mediated elevation of [Ca^2+]i: pretreatment 10 μM, Ca^2+ buffer (1.5 mM Ca^2+) and Ca^2+ free buffer (0.2 mM EGTA), n=4-5/group
Experimental: Data are represented as means ±SEM (n=4-5/group).
[Ca^2+]i was estimated in fura 2-loaded cells in suspension using an RF-5300PC intracellular ion measurement system (Shimadzu Corporation, Japan). The fura 2-AM loaded cells were diluted with an experimental medium to a final density of 2˜4×10^6 cells/mL and transferred to polystyrene cuvettes (Elkay Ultra-VU). The cells were stirred using Teflon-coated magnets, and the cuvette housing was thermostatically controlled at 37° C. The excitation wavelengths were alternated between 340 and 380 nm under computer control. Emission was detected at 510 nm. Excitation and emission slit widths were 5 nm. Background correction was performed as described by Jorgensen et al. Digitonin and EGTA were used as concentration adjustment reagents to make a condition in which fura 2 completely combines with and disassociates from Ca^2+.

Question: NCCOB(c1ccccc1)c1ccccc1 [2-APB, 2-aminoethxydiphenyl borate] was tested. Which “inward CaCC currents induced by gintonin after addition of 2-APB” value ([1]; P<0.01 vs control current) did it give?
Answer: 0.03±0.01 μA

Question: What about the “effect on gintonin-induced inward CaCC currents” value ([1]; addition of 2-APB) of the same compound?
Answer: almost completely abrogated

Question: CC(=O)OCOC(=O)CN(CC(=O)OCOC(C)=O)c1ccccc1OCCOc1ccccc1N(CC(=O)OCOC(C)=O)CC(=O)OCOC(C)=O [BAPTA-AM, 1,2-bis-(2-aminophenoxy)ethane-N,N,N′,N′-tetraacetic acid acetoxymethyl ester] was tested. Which “effect on gintonin-mediated CaCC activation” value ([1]; 10 μM final) did it give?
Answer: almost extinguished

Question: What does the source list for COc1ccc2c(c1)CC[C@@H]1[C@@H]2CC[C@]2(C)[C@@H](NCCCCCCN3C(=O)C=CC3=O)CC[C@@H]12 [U-73122]?
Answer: effect on the action of gintonin on [Ca^2+]i [2]: almost abrogate; effect on gintonin (100 ng/mL)-mediated elevation of [Ca^2+]i [2]: blocked; crude gintonin-induced CaCC currents, % of the control [1]: 3.9±0.3%

Question: Which results are given for COc1ccc2c(c1)CC[C@@H]1[C@@H]2CC[C@]2(C)[C@@H](NCCCCCCN3C(=O)CCC3=O)CC[C@@H]12 [U-73343]?
Answer: effect on the action of gintonin on [Ca^2+]i [2]: not; effect on gintonin (100 ng/mL)-mediated elevation of [Ca^2+]i [2]: not; crude gintonin-induced CaCC currents, % of the control [1]: 97.2±0.2%
